Assay results from patent US9556232B2, “Anti-angiogenic molecules, nanostructures and uses thereof” (Northwestern University, priority 2013, dated 2017).
Entries after “also recorded” stand apart in the source; their conditions may differ.

Columns and labels:
[1] = Critical assembly concentration determination by nile red incorporation; type: physicochemical; details: in PBS, nile red blueshift in peak emission
Procedure: Critical Assembly Concentration Determination by Nile Red Incorporation.
MMPA, MMPep, or ScramPA solutions ranging from 100 nM to 200 μM concentration in PBS were made from stock solutions and NR dissolved in ethanol was diluted 200-fold into solutions to a final concentration of 500 nM. Using a NanoLogHJ spectrofluorometer, samples were excited at 550 nm and spectra were obtained between from 580 nm-750 nm. Blueshift was plotted against concentration to determine the critical assembly concentration.

[2] = test system: HUVECs; test: Flow cytometry and confocal microscopy to assess PA binding to HUVECs; type: cell-based, human
Procedure: Flow Cytometry and Confocal Microscopy to Assess PA Binding.
Stock fluorescent PA and peptide solutions were made by dissolving FITC-labeled molecules in PBS at a concentration of 200 μM (assuming peptide content of 90%). Stock fluorescent solutions were then mixed in equal volumes with 1 mM stock solutions of non-fluorescent PA or peptide solution and allowed to sit overnight at room temperature to make working solutions. Subconfluent human umbilical vein endothelial cells (HUVECs) were incubated for 2 hr in starvation media before detaching with 0.05% trypsin/EDTA. Cells were then spun down to remove trypsin/EDTA and were re-suspended in starvation media at 250,000/mL. Working peptide and PA solutions then added to cell suspensions such that the final concentration corresponded to 10 μM non-fluorescent molecule. After incubating at 37° C. for 30 mins, cells were spun down and resuspended in Hank's balanced salt solution (HBSS) twice. Fluorescence signal of each cell was quantified using a LSRFortessa cell analyzer (BD Biosciences). Cells were also plated on poly-d-lysine coated glass coverslips, fixed with 4% paraformaldehyde, and embedded in mounting media for imaging using an AIR laser scanning confocal microscope (Nikon). Machine parameters were kept constant for all samples in both confocal microscopy and flow cytometry experiments.

[3] = test system: HUVECs; test: Assessment of cell adhesion on fibronectin (PicoGreen); type: cell-based, human; details: concentration not given
Procedure: Assessment of Cell Adhesion on Fibronectin.
The effect of peptide and PAs on HUVEC adhesion was assessed. Fibronectin from human plasma (Sigma) was dissolved in sterile MilliQ water and was added to tissue culture-treated 96 well plates at 5 μg/cm2, which were then left to dry overnight at room temperature in a sterile laminar flow hood. Coated plates were stored at 4° C. and warmed to 37° C. prior to use. Subconfluent HUVECs were incubated for 2 hr in starvation media (EndoGRO basal media from Millipore supplemented with 0.5% fetal bovine serum and 1× penicillin-streptomycin from Gibco) before detaching with 0.05% trypsin/EDTA. Cells were then spun down to remove trypsin/EDTA and were re-suspended in PBS containing peptide or PA molecules. Cells were incubated in treatment for 30 min at 37° C. and then plated at 15,000 cells/well. After 45 mins, wells were washed once with PBS to detach loosely adhered cells. A PicoGreen assay (Invitrogen) was used to quantify number of cells in each well. Cell counts were normalized to that obtained in wells with no treatment. Statistical analysis was performed in GraphPad Prism software using one-way analysis of variance (ANOVA) with a Bonferroni's Multiple Comparisons post-test comparing all pairs of columns. For all treatment groups, n=4.

[4] = test system: HUVECs; test: Assessment of cell migration on fibronectin (live-cell imaging); type: cell-based, human; details: HUVECs on FN-coated glass, bFGF stimulus, 10 μM
Procedure: Assessment of Cell Migration on Fibronectin.
Fibronectin from human plasma was coated onto tissue culture-treated 4-chamber glass-bottom petri dishes (In Vitro Scientific) at 7 μg/cm2 as previously described. Subconfluent HUVECs were incubated for 2 hr in starvation media before detaching with 0.05% trypsin/EDTA. Cells were then spun down to remove trypsin/EDTA, re-suspended in starvation media, and plated onto glass-bottom petri dishes at a concentration of 4000 cells per chamber. After cells attached (approximately 1 hr at 37° C.)., the media was aspirated and replaced with starvation media containing […] basic fibroblast growth factor (bFGF) and 10 μM MMPA, MMPep, or Scram PA. Live-cell imaging was performed on a Nikon BioStation IM at 37° C., and cell migration was quantified manually using a plugin to track the location of the cell nucleus every 30 mins in ImageJ software. ANOVA with a Dunnett's Multiple Comparisons post-test of each treatment condition against control was performed using GraphPad Prism software. For control, MMPA, MMPep, and ScramPA, n=56, 54, 31, and 42 respectively.

[5] = test system: HUVECs; test: Assay of angiogenesis in vitro by tube formation; type: cell-based, human; details: HUVECs on matrigel, imaged 5 hrs after addition of treatment
Procedure: Assay of Angiogenesis In Vitro by Tube Formation.
Wells of a 96-well plate were coated with ECMatrix solution, and 5×10^3 HUVECs were plated in triplicate wells in a volume of 50 μL of endothelial growth medium (EGM) containing 0.5% FBS with 50 ng/mL bFGF for 2 hours. MMPA, MMPep, ScramPA treatments at respective dosages were added to the wells for 5 hours. Tube formation was evaluated by phase-contrast microscopy using an Olympus IX-70 microscope (100× magnification) connected to a Diagnostic Instruments Spot RT Camera. Experiments were repeated independently three times.

[6] = test system: chicken chorioallantoic membrane (CAM); test: Characterization of angiogenesis in vivo by CAM assay; details: 1 mM in PBS from filter paper circles, embryonic day 5, 21 hrs and 42 hrs
Procedure: Characterization of Angiogenesis In Vivo by CAM Assay.
In vivo assessment of the anti-angiogenic potential of PAs and peptide was performed using the chicken chorioallantoic membrane (CAM). In this well-established CAM assay, angiogenesis of the extraembryonic allantois was measured at several time points after treatment with PAs or peptide. Fertilized chicken eggs (Sunnyside Hatchery) were received and cultured in a temperature controlled, humidified egg incubator. On embryonic day 3, eggs were cracked into 100 mm sterile petri dishes without breaking the yolk sac and were transferred to a water-jacketed humidified CO2 incubator set to 37° C. On embryonic day 5, 5 μL of treatment (PA, peptide, or scrambled PA dissolved in PBS at 1 mM) or control (PBS) solutions were deposited onto autoclaved filter paper circles ¼″ in diameter. Solution-soaked filter paper circles were placed on top of the CAM and digital images were captured using a Nikon stereomicroscope. Vessel density was quantified by counting the number of vessels intersecting the circumference of filter paper circles and is expressed relative to the initial time point. ANOVA with a Dunnett's Multiple Comparisons post-test of each treatment condition against control was performed using GraphPad Prism software. A minimum of n=5 samples was analyzed for each treatment condition at each time point.

Substance: MMPep: 15-residue peptide: maspin g-helix sequence plus two residues on either end, EDESTGLEKIEKQLN, synthesized as previously reported [reference compound]
- critical aggregation assembly concentration (CAC) [1]: > 200 µM
- median FITC intensity per cell ([2]; FACS, HUVECs, FITC-labeled molecule mixed with non-fluorescent molecule, 10 μM, 30 mins 37° C.): 2.6 times that of untreated control
- cell binding (FACS, HUVEC fluorescence) ([2]; HUVECs treated with FITC-labeled PAs and peptide): binds to cells significantly less effectively than PA nanostructures
- HUVEC adhesion to FN surface vs untreated controls [3]: do not show this effect; also recorded: unable to improve cell adhesion over untreated controls
- cell motility / migration vs PBS control [4]: statistically less migratory (P<0.05); also recorded: significantly decrease cell motility over untreated controls
- average cell migration speed ([4]; measured over at least 2 hrs and up to 8 hrs): 0.30 μm/min
- inhibition of tube formation [5]: slightly effective at greater than 10 μM; also recorded: partially inhibited tube formation at higher concentrations (10 μM)
- angiogenesis in CAM (vessels intersecting filter paper circumference, normalized to initial count) vs PBS control [6]: present but is statistically insignificant
